How the values were obtained:
Assay in all cases: biochemical
Design in all cases: Kinase selectivity panel of 81 human kinases, ADP-Glo or HTRF, per cent inhibition at 1 uM
[1] = molecular target: ABL1 (Homo sapiens, UniProt P00519)
Description: (§1) We next sought to determine the binding affinity of Zharp1-163 for RIPK1 or RIPK3 via a binding assay (Fig. 4A). […] Further, we evaluated the selectivity of Zharp1-163 against a panel of 81 kinases (at 1000 nM). […] To elucidate the binding interactions between Zharp1-163 and RIPK1 kinase, we conducted molecular docking studies using the RIPK1 crystal structure (PDB ID: 4NEU). The predicted binding conformations and interaction patterns between Zharp1-163 and the RIPK1 kinase domain are presented in Fig. 4D, E. Like the cocrystallized ligand in the 4NEU crystal complex, Zharp1-163 was predicted to act as a typical type II kinase inhibitor, interacting with the DLG (Asp156-Leu157-Gly158)-out conformation of RIPK1 (Fig. 4D, E). The 2-aminoimidazo [1,2-a] pyridine moiety of Zharp1-163 formed hydrogen bonds with Met95 in the hinge region. Furthermore, the carboxylate group of Zharp1-163 established hydrogen bonds with Asp156 in the DLG-out region. Additionally, the saturated ring of Zharp1-163 was deeply embedded within the hydrophobic allosteric pocket formed by the residues Met66, Met67, Leu70, Val76, Leu129, and Leu159, which is created by the DLG-out conformation in RIPK1 (Fig. 4D, E).  Fig. 4 Zharp1-163 is a selective inhibitor of RIPK1 kinase activity. A Binding affinity curve of Zharp1-163 with RIPK1 and RIPK3. B In an in vitro kinase activity assay, recombinant RIPK1 was incubated with Zharp1-163, after which RIPK1 kinase activity was determined by measuring ATP levels via a luciferase reporter assay system. […] Kinases are marked with dots, where the color of each kinase indicates the level of inhibition achieved by Zharp1-163. D Predicted binding conformation of Zharp1-163. E Schematic representation of the interaction patterns between Zharp1-163 and the key residues in the binding pocket of the RIPK1 kinase. […] NIH3T3-RIPK3 cells were pretreated with the indicated concentrations of Zharp1-163 for 2 h and then treated with AP20187 (100 nM) for 24 h. Cell viability was determined by measuring ATP levels. […] HeLa-MLKL (1–190) cells were pretreated with the indicated concentrations of Zharp1-163 for 2 h and subsequently treated with AP20187 (100 nM) for 24 h. Cell viability was determined by measuring ATP levels. H Viability of IFNβ-primed MEFs at 18 h after stimulation with poly(I:C) plus z-VAD and treatment with Zharp1-163 (10 μM). I Effects of different concentrations of Zharp1-163 on WT or RIPK1 KO HT-29 cells. Cell viability was determined by measuring ATP levels. The data are presented as the mean ± SD of triplicate samples.

[2] = molecular target: CDK18/CycY (Homo sapiens, UniProt Q07002)
Description: as §1

[3] = molecular target: T1, CDK5/p35NCK (Homo sapiens, UniProt Q00535)
T1 construct: p35NCK
Description: as §1

[4] = molecular target: T2, CK1γ2 (Homo sapiens, UniProt P78368)
T2 construct: gene CSNK1G2
Description: as §1

[5] = molecular target: T3, CK1γ3 (Homo sapiens, UniProt Q9Y6M4)
T3 construct: gene CSNK1G3
Description: as §1

[6] = molecular target: T4, CaMK1α (Homo sapiens, UniProt Q14012)
T4 construct: gene CAMK1
T4 sequence (Q14012 whole entry): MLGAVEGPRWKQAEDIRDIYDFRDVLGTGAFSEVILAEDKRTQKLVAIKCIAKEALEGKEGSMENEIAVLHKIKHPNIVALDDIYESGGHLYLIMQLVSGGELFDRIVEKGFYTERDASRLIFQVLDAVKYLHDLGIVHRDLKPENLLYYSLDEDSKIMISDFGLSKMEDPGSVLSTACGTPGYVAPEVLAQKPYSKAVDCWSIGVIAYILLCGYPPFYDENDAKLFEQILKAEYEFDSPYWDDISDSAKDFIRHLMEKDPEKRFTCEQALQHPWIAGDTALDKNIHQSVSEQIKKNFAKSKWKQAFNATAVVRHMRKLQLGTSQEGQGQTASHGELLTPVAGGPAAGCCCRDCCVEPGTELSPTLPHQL
Description: as §1

[7] = molecular target: EGFR (Homo sapiens, UniProt P00533)
Sequence of EGFR (P00533 whole entry): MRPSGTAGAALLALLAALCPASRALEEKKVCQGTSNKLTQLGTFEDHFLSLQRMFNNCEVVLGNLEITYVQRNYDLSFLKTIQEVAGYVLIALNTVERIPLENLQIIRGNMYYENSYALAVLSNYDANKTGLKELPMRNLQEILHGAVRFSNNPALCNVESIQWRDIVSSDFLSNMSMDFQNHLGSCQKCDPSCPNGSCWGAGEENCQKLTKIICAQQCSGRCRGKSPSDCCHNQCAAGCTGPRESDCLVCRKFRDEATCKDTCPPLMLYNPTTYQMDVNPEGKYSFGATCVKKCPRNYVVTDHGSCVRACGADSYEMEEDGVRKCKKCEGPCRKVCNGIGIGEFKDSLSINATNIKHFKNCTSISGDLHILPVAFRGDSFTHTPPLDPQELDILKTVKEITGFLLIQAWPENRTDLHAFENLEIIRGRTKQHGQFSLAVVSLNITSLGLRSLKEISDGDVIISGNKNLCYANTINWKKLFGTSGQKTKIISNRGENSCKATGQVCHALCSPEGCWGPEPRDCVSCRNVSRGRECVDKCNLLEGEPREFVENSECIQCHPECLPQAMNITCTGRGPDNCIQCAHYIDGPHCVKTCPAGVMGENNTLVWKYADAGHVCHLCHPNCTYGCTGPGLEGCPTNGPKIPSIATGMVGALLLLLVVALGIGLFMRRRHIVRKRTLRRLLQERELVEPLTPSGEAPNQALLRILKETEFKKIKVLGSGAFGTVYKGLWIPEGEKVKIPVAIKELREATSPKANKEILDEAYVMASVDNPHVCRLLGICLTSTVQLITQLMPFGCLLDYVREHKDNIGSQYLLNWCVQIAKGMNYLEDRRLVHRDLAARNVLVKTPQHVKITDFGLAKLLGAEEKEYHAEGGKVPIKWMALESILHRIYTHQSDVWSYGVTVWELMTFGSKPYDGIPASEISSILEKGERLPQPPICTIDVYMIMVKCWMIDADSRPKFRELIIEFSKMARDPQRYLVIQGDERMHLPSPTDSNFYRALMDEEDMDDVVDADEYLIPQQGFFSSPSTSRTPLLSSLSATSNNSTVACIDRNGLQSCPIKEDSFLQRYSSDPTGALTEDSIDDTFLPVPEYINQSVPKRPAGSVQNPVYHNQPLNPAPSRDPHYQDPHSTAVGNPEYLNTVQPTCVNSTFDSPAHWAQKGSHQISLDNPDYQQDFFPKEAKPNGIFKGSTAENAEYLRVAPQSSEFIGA
Description: as §1

[8] = molecular target: EPHA2 (Homo sapiens, UniProt P29317)
Description: as §1

[9] = molecular target: FGFR1 (Homo sapiens, UniProt P11362)
Sequence of FGFR1 (P11362 whole entry): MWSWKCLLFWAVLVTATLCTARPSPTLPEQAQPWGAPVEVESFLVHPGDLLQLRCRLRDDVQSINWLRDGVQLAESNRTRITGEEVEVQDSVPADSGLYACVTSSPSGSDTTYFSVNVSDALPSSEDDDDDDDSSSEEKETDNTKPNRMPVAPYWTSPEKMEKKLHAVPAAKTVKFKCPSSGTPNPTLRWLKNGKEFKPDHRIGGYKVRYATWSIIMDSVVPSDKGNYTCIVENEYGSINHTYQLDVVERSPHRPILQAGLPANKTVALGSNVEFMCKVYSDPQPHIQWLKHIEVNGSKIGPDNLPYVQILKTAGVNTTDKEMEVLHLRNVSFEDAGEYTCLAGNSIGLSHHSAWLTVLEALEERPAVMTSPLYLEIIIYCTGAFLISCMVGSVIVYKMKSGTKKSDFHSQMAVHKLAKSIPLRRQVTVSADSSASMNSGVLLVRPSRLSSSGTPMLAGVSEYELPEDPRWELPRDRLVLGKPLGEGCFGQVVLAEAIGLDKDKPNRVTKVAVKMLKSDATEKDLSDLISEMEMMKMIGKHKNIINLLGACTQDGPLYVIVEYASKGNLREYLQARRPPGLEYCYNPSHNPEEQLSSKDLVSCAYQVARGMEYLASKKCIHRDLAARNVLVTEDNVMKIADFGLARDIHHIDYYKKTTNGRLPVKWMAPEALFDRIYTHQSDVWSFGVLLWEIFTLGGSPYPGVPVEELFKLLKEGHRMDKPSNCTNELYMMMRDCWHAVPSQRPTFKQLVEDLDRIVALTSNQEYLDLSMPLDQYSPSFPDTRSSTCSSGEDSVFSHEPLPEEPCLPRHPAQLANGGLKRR
Description: as §1

[10] = molecular target: T5, GSK3β (Homo sapiens, UniProt P49841)
T5 construct: gene GSK3B
Description: as §1

[11] = molecular target: T6, HPK1 (Homo sapiens, UniProt Q92918)
T6 construct: gene MAP4K1
Description: as §1

[12] = molecular target: NEK1 (Homo sapiens, UniProt Q96PY6)
Sequence of NEK1 (Q96PY6 whole entry): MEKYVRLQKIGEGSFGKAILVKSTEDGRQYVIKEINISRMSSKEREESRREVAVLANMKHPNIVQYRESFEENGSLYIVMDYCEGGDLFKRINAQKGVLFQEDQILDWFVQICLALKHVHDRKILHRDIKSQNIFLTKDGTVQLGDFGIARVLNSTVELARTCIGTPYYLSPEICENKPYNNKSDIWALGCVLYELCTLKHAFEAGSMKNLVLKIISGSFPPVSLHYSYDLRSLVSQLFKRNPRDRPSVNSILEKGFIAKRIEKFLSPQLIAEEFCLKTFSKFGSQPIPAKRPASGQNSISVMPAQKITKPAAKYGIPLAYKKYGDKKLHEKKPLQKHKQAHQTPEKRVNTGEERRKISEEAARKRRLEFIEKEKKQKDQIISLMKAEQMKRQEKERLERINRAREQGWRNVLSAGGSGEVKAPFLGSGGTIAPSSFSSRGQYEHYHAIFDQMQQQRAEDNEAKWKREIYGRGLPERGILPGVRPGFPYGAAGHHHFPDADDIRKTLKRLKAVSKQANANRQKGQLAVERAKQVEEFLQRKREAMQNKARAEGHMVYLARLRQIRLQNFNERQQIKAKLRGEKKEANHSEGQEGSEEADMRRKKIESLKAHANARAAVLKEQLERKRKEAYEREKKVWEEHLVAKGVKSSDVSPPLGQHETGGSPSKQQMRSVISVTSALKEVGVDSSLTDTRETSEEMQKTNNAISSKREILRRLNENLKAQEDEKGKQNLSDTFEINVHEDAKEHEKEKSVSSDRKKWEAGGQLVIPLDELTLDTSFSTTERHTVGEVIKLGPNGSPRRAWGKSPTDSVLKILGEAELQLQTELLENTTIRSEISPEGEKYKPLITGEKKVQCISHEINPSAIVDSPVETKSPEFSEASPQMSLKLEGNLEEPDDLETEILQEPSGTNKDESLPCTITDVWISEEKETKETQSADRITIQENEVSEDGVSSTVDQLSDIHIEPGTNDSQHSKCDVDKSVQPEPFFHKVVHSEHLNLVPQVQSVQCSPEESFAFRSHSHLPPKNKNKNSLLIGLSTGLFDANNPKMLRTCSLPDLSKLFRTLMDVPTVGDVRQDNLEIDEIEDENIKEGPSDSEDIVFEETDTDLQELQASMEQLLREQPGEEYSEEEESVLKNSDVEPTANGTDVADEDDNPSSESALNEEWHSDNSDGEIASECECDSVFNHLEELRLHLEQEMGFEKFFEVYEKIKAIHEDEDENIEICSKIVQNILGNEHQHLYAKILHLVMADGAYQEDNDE
Description: as §1

[13] = molecular target: PIM1 (Homo sapiens, UniProt P11309)
Sequence of PIM1 (P11309 whole entry): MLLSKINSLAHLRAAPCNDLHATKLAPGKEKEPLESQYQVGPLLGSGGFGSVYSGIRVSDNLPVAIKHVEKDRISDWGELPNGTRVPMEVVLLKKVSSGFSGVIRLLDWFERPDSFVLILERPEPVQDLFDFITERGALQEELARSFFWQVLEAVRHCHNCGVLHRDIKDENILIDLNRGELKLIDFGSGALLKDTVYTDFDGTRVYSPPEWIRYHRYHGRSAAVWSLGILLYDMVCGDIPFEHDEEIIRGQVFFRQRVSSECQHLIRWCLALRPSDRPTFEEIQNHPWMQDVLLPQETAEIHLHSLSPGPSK
Description: as §1

[14] = molecular target: ROCK1 (Homo sapiens, UniProt Q13464)
Description: as §1

Sequence of ABL1 (P00519 whole entry, the tested form may be a part): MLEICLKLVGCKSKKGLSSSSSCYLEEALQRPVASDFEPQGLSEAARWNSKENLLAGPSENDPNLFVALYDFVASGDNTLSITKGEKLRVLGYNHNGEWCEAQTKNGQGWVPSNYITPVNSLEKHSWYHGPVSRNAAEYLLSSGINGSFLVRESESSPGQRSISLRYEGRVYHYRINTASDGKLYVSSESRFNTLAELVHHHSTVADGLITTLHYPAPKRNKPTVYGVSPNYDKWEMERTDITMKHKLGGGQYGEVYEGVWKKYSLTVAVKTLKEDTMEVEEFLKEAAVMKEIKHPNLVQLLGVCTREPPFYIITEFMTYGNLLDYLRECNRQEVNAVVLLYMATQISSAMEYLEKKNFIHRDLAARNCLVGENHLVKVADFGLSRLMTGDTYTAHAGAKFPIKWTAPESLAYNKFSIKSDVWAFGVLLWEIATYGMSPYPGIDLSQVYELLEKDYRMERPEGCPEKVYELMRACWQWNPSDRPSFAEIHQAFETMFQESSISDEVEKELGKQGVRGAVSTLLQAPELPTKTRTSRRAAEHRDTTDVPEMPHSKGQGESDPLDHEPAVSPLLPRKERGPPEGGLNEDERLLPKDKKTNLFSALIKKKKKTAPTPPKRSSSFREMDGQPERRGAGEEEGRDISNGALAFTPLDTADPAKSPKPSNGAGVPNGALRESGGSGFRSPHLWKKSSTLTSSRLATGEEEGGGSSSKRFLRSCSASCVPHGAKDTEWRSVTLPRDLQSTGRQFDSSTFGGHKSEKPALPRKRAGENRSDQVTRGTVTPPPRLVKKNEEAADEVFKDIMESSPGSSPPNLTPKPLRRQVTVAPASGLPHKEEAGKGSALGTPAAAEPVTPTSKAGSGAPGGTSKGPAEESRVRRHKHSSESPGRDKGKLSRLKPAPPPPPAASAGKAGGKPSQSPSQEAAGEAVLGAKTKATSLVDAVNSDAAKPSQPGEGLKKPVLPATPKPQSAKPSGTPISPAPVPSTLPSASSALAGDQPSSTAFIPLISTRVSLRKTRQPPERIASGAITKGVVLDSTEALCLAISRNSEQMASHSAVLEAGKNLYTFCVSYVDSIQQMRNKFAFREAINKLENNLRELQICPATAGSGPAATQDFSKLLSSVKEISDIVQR

Nc1cn2cc(-c3cnc4c(c3)N(C(=O)OC3CCCCC3)CCO4)ccc2n1 [Zharp1-163]
inhibition at 1 µM ([1]; replicate Data1): 6.71% | inhibition at 1 µM ([1]; replicate Data2): 9.11% | inhibition at 1 µM ([2]; replicate Data1): 4.89% | inhibition at 1 µM ([2]; replicate Data2): -0.64% | inhibition at 1 µM ([3]; replicate Data1): 7.89% | inhibition at 1 µM ([3]; replicate Data2): 1.25% | inhibition at 1 µM ([4]; replicate Data1): -3.03% | inhibition at 1 µM ([4]; replicate Data2): 8.14% | inhibition at 1 µM ([5]; replicate Data1): 14.1% | inhibition at 1 µM ([5]; replicate Data2): 20.6% | inhibition at 1 µM ([6]; replicate Data1): -18.7% | inhibition at 1 µM ([6]; replicate Data2): -6.35% | inhibition at 1 µM ([7]; replicate Data1): -2.16% | inhibition at 1 µM ([7]; replicate Data2): -4.3% | inhibition at 1 µM ([8]; replicate Data1): -8.55% | inhibition at 1 µM ([8]; replicate Data2): -9.14% | inhibition at 1 µM ([9]; replicate Data1): 2.7% | inhibition at 1 µM ([9]; replicate Data2): -0.57% | inhibition at 1 µM ([10]; replicate Data1): 11.8% | inhibition at 1 µM ([10]; replicate Data2): -2.82% | inhibition at 1 µM ([11]; replicate Data1): 17% | inhibition at 1 µM ([11]; replicate Data2): 2.46% | inhibition at 1 µM ([12]; replicate Data1): 4.63% | inhibition at 1 µM ([12]; replicate Data2): 13.4% | inhibition at 1 µM ([13]; replicate Data1): 3.88% | inhibition at 1 µM ([13]; replicate Data2): 7.34% | inhibition at 1 µM ([14]; replicate Data1): 2.59% | inhibition at 1 µM ([14]; replicate Data2): 4.57%

— paper PMC12394658, “Discovery of Zharp1-163 as a dual inhibitor of ferroptosis and necroptosis for the treatment of inflammatory disorders and kidney injury” (Cell Death Discovery, 2025)
